The values that follow come from patent publication US20240209334A1, “SMALL-MOLECULE-ACTIVATED GLYCAN MODIFYING ENZYMES AND USES THEREOF” (President and Fellows of Harvard College, priority 2022, published 2024).

Assay type in all cases: cell-based, human
Test [1] has as its system MCF7-C181 cells. Kind of test: Cell viability, CCK-8 assay. To be noted: 48 hours. From the text: (§1) In addition to serving as an activator for intein splicing, 4-HT is also known as the active metabolite of tamoxifen, an FDA-approved drug for treating breast cancer patients. Breast cancer cells also have elevated OGT expression (39) and decreased levels of OGA (40, 41), resulting in elevated O-GlcNAcylation in the proteome. OGT is usually required for tumor growth and metastasis (39), and low OGA expression is correlated with poor survival in breast cancer patients (FIG. 13). The ER positive breast cancer-derived MCF-7 cell line is sensitive to tamoxifen and 4-HT, resulting in suppression of cell proliferation, yet drug resistance occurs after long-term treatment (42). […] To determine if reduction of O-GlcNAc sensitized MCF-7 cells to 4-HT treatment, it was assessed whether 4-HT induced inhibition of breast cancer cell proliferation and OGA-intein activation worked synergistically to accelerate cell death (FIG. 5A). […] Next, these two cell lines were treated with 4-HT at increasing concentrations, and cell viability was measured after 48 hours. […] Given that 4-HT promoted MCF-7 cell death through apoptosis (43), the apoptosis of these cells under 4-HT treatment was further analyzed through flow cytometry analyses following Annexin V and DAPI staining. […]
(§2) Cell viability assay. Cell viability was assessed by CCK-8 assay. […]

In another test the test system is MCF7-C181_D174N cells. Kind of test: Cell viability, CCK-8 assay. To be noted: 48 hours.
From the text: as §1, §2
(In general: Formazan colour is commonly taken as a measure of viable cells.)

Test [2] has as its system MCF7-C181 cells. Kind of test: Apoptosis, Annexin V/DAPI flow cytometry. The conditions noted are these: 10 μM 4-HT for 24 hours.
From the text: as §1
(§3) Detection of cell apoptosis. […] Data was analyzed by FlowJo v10.
Background: A flow cytometer gives signals particle by particle.

Another test concerns MCF7-C181_D174N. Put plainly: Apoptosis, Annexin V/DAPI flow cytometry. The conditions noted are these: 10 μM 4-HT for 24 hours.
From the text: as §1, §3

In another test the test system is regular MCF-7 cells. Put plainly: Cell viability, CCK-8 assay. The conditions noted are these: 48 hours.
From the text: as §1, §2

Take `CC/C(=C(\c1ccc(O)cc1)c1ccc(OCCN(C)C)cc1)c1ccccc1` [4-HT, 4-hydroxytamoxifen]: the “4-HT concentration giving almost complete cell survival inhibition” value with MCF7-C181 cells [1] worked out at 5 µM. Further, the “4-HT concentration required for suppressing survival” value in the test on MCF7-C181_D174N cells and in the test on regular MCF-7 cells was over 5 µM throughout. Besides, the figures for the apoptotic cells with MCF7-C181 cells [2] and in the test with MCF7-C181_D174N were 6.84% and 6.09%, respectively.
